Data as given in paper PMC6838324, “A suicide inhibitor of nematode trehalose-6-phosphate phosphatases” (Scientific Reports, 2019).
Several values for one entry are separate records, joined by “and”; a condition that tells them apart may be missing. Identical values can stand only once. Entries after “also recorded” stand apart in the source; their conditions may differ. Like-named read-outs stand apart in the source and are kept apart here.

Legend:
[1] = tested on: TPP from S. maltophilia; assay: Phosphatase end-point assay, S. maltophilia TPP; conditions: 25 μM compound
Procedure: (§3) Phosphatase end-point assays were carried out following a previously established protocol[35]. Briefly, the phosphatase activity of Acey-TPP and Tcan-TPP was assessed using 500 μM trehalose-6-phosphate and 10 μM enzyme to be tested. Reactions were carried out in a volume of 50 μL in assay buffer (100 mM NaCl, 20 mM TRIS, pH 7.5). Individual compounds were added to the reaction mixtures at a final concentration of 25 μM, followed by incubation for 5 min before reactions were initiated by the addition of substrate (final DMSO concentration of 4%).
(§4) Reactions were allowed to proceed for 5 min before quenching with 100 μL of BIOMOL® Green reagent (Enzo Life Sciences, New York, NY, USA). Absorbance at 620 nm was determined using a BioTek® Synergy 2 plate reader (BioTek, Winooski, VT, USA) after an incubation period of 15 min for colour development. All reactions were set up in triplicate in 96-well plates (Corning, Sigma-Aldrich, NSW, Australia) at 25 °C and control experiments in the absence of enzyme were used to correct for background absorbance.
(§5) Raw data were exported as spreadsheets from the plate reader and assembled for statistical analysis with R[48] using the software jBar[49] for calculation of means and standard errors, background correction, normalisation and significance evaluation by a two-sided t-test.

[2] = tested on: T. canis L3 larvae; assay: L3 larvae survival assay, T. canis; type: cell-based
Procedure: (§1) Control larvae were maintained in 0.4% DMSO in Minimal Essential Medium. The survival of L3s exposed to the compound was assessed at several time points after the start of the incubation using a light microscope (at 40× maginification).

[3] = target: Tcan-TPP (Toxocara canis, UniProt A0A0B2V3X6); assay: biochemical; type: biochemical
Procedure: (§2) Compounds were prepared in stocks of increasing concentration such that only 2 μL was added to reaction wells, thus keeping the DMSO concentration consistent at 4%. Enzyme in the absence of compound (with DMSO only) was run as a control and after correction for background absorbance, all test wells were scaled relative to the enzyme-only control. IC50 values were determined through fitting using either the software application SDAR[50] or DRfit[51].

[4] = tested on: T. cati L3 larvae; assay: L3 larvae survival assay, T. cati; type: cell-based
Procedure: as §1

[5] = tested on: TPP from S. pneumoniae; assay: Phosphatase end-point assay, S. pneumoniae TPP; conditions: 25 μM compound
Procedure: as §3, §4, §5

[6] = tested on: Tcan-TPP-C215S; assay: Phosphatase end-point assay, C215S mutant of T. canis TPP; type: biochemical, Toxocara canis; conditions: 25 μM compound
[7] = target: TPP from M. tuberculosis (Mycobacterium tuberculosis, UniProt P9WFZ5); assay: Phosphatase end-point assay, M. tuberculosis TPP; type: biochemical; conditions: 25 μM compound
[8] = target: Hcon-TPP1 (Haemonchus contortus, UniProt A0A7I4Z3L8); assay: biochemical; conditions: for Ki: read-out: app. Ki, Hcon-TPP1, assuming a competitive inhibition model; for inhibition at 25 µM: read-out: inhibition of Hcon-TPP1 enzyme activity
Procedure: as §2

[9] = target: Acey-TPP (Ancylostoma ceylanicum, UniProt A0A016UGW6); assay: biochemical; conditions: for inhibition at 25 µM: read-out: inhibition of Acey-TPP enzyme activity
Procedure: as §2

[10] = tested on: H. contortus xL3 larvae; assay: Motility assay of exsheathed third-stage larvae (xL3) of H. contortus; type: cell-based, Haemonchus contortus; conditions: 25 μM and 100 μM compound
Procedure: The effects of compound 1 were assessed in a motility assay using exsheathed third-stage larvae (xL3s) of H. contortus in 96-well microculture plates (Corning 3635; Life Sciences, USA) and the control compounds moxidectin and monepantel, following the published protocol. In brief, 1 was diluted to the final concentration of 100 µM using Luria Bertani medium (LB) supplemented with 100 IU/mL of penicillin, 100 μg mL^−1 of streptomycin and 2.5 μg mL^−1 of amphotericin (LB*), and then dispensed in triplicate into wells of a 96-well microculture plate using a multichannel pipette. Additionally, the negative controls (LB*, LB* + 0.5% solvent; six wells each), and positive controls (20 µM monepantel; Zolvix, Novartis Animal Health, Switzerland and 20 µM moxidectin; Cydectin, Virbac, France; triplicate wells) and xL3s (~300 per well) were dispensed into wells of the plate using an automated multichannel pipette. Following incubation at 38 °C and 10% CO2 for 72 h, a video recording of 5 s duration was taken of each well using a grayscale camera (Rolera Bolt, QImaging, Canada) and a motorized X-Y axis stage (BioPoint2, Ludl Electronic Products, USA). Videos were processed to calculate a motility index (MI) using an algorithm described previously.

[11] = target: Paer-ecTPP (Pseudomonas aeruginosa, UniProt B3G2E1); assay: Phosphatase end-point assay, extra-chromosomal TPP from P. aeruginosa; type: biochemical
Procedure: as §2

[12] = target: TPPs from different nematode and bacterial organisms; conditions: read-out: inhibition constants; cited from earlier work
[13] = tested on: mycobacterial TPPs; set-up: method as in PMID 30402996; conditions: cited from earlier work
[14] = 25 μM compound, compared with uninhibited enzyme
[15] = listed as N-(phenylthio)phthalimide

Sequence of Acey-TPP (A0A016UGW6 entry or part of it): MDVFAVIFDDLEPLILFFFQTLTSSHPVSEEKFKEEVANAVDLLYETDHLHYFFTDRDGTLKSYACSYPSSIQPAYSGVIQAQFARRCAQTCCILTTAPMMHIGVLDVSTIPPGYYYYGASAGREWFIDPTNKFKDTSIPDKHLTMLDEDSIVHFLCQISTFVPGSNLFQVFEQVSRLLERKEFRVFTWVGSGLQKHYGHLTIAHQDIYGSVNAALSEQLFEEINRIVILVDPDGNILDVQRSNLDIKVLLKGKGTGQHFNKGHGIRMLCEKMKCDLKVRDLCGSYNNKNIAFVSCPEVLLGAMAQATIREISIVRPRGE
Sequence of Hcon-TPP1 (A0A7I4Z3L8 entry or part of it): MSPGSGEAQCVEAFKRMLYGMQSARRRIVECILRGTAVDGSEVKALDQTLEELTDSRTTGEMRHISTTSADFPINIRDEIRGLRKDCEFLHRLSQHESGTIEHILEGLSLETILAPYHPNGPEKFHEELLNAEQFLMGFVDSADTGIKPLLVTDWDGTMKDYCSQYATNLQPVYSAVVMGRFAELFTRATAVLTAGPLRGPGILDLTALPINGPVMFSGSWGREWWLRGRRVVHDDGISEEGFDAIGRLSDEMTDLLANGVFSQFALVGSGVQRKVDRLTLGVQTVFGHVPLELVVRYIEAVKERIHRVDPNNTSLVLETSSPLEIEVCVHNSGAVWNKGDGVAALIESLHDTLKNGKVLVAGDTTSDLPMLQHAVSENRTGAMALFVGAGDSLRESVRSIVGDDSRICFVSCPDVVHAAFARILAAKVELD
Sequence of Paer-ecTPP (B3G2E1 entry or part of it): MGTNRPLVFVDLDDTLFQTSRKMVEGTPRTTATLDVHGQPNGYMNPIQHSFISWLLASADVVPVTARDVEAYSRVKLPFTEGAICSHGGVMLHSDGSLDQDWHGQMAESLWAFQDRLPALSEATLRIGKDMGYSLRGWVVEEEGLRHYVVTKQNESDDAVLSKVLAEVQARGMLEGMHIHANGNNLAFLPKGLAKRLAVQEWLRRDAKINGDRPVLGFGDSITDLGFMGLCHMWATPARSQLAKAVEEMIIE
Sequence of Tcan-TPP (A0A0B2V3X6 entry or part of it): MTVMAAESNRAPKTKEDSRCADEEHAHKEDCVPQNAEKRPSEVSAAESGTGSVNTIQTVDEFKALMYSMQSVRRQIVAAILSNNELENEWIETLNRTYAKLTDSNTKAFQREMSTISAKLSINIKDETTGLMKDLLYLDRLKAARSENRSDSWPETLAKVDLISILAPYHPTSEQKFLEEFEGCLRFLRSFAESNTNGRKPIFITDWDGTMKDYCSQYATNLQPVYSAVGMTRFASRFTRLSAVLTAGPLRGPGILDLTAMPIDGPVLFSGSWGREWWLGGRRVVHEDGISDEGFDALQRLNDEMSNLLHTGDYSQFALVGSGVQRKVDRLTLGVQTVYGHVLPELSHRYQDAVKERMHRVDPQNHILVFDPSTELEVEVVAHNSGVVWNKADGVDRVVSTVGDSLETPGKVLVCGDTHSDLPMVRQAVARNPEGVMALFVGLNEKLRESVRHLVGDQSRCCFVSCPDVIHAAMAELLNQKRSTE
Sequence of TPP from M. tuberculosis (P9WFZ5 whole entry, looked up): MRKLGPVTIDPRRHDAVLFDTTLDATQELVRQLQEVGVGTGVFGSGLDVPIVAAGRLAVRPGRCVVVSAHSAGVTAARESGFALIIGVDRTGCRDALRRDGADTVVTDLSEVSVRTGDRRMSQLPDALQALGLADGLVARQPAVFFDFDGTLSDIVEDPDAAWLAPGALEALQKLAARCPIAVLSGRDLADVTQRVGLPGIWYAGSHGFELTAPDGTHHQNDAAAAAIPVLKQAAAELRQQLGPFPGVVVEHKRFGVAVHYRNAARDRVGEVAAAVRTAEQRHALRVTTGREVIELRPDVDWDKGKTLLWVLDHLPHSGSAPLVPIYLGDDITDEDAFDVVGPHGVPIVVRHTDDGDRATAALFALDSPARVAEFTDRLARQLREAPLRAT

O=C1c2ccccc2C(=O)N1Sc1ccccc1 [Compound 1, N-(phenylthio)phthalimide]
inhibition of phosphatase activity [1]: only the extra-chromosomal TPP from P. aeruginosa was susceptible to inhibition | lethality ([2]; T. canis larvae, 100 μM, after 24 h): > 80% | LC50 ([2]; Toxocara canis, 24 h, read-out: half maximum lethal concentration): 61 µM | IC50 [3]: 0.89 ± 0.037 µM | inhibitory effect on phosphatase activity under reducing conditions ([3]; 25 μM compound, 1 mM DTT, Tcan-TPP): entirely suppressed | inhibition of Tcan-TPP enzyme activity [3, 14]: complete annihilation | Ki ([3]; app. Ki, Tcan-TPP, assuming a competitive inhibition model): 0.6 µM and 0.56 µM | lethality ([4]; T. cati larvae, 100 μM, after 3 h): > 80% | LC50 ([4]; Toxocara cati, 24 h, read-out: half maximum lethal concentration (IC50 in survival assay)): 9.3 µM | inhibition of phosphatase activity [5]: only the extra-chromosomal TPP from P. aeruginosa was susceptible to inhibition | effect on enzymatic activity of mutant Tcan-TPP-C215S [6]: did not affect the enzymatic activity | inhibition of phosphatase activity [7]: only the extra-chromosomal TPP from P. aeruginosa was susceptible to inhibition | concentration at which enzymatic activity is almost entirely suppressed ([8]; H. contortus TPP, dose-response): > 25 µM | IC50 ([8]; Hcon-TPP1, phosphatase end-point assay): 6.6 ± 0.36 µM | Ki [8]: 6 µM | Ki [8, 15]: 5.8 µM | inhibition at 25 µM [8]: 82% | inhibitory effect on phosphatase activity under reducing conditions ([9]; 25 μM compound, 1 mM DTT, Acey-TPP): entirely suppressed | inhibition of Acey-TPP enzyme activity [9, 14]: complete annihilation | inhibition at 25 µM [9]: > 50% | motility of exsheathed H. contortus larvae (xL3) [10]: only weakly impaired | motility of exsheathed H. contortus larvae (xL3) [10, 15]: no bioactivity was observed; also recorded: no significant effects | inhibition of phosphatase activity ([11]; 25 μM compound, P. aeruginosa extra-chromosomal TPP): susceptible to inhibition | Ki ([11]; Paer-ecTPP, assuming a competitive inhibition model, read-out: app. Ki): 2.1 µM | IC50 ([11]; Paer-ecTPP, phosphatase end-point assay): 2.1 ± 0.19 µM

O=C1NC(=O)c2ccccc21 [Compound 3, phthalimide]
inhibition at 25 µM ([3]; read-out: inhibition of Tcan-TPP enzyme activity): ≤ 20% | inhibition at 25 µM [8]: ≤ 20% | inhibition at 25 µM [9]: ≤ 20%

O=S(=O)(O)OC[C@H]1O[C@H](O[C@H]2O[C@H](CO)[C@@H](O)[C@H](O)[C@H]2O)[C@H](O)[C@@H](O)[C@@H]1O [trehalose-6-sulphate]
Ki [12]: 50 to 300 µM

OCC1=C[C@@H](N[C@H]2C[C@H](CO)[C@@H](O[C@H]3O[C@@H](CO)[C@H](O)[C@@H](O)[C@@H]3O)[C@H](O)[C@H]2O)[C@H](O)[C@@H](O)[C@@H]1O [validamycin A]
IC50 [13]: 12600 to 15000 µM
